Results on four molecules are retold here after patent US7199114B2, “Triterpene quaternary salts as biologically active surfactants” (The Regents of the University of Minnesota, priority 2002, dated 2007).

The subject of test [1] is brown patch, caused by Rhozoctonia sofani. Nature of the test: Antifungal treatment on turf grass plots (Example 84), brown patch. It is filed as in vivo. The conditions noted are these: 17.8 g/1000 sq. ft. (Daconil Ultrex 3.2 oz./1000 sq. ft.). On the procedure: (§1) Plots of creeping bentgrass, cv. “Pennlinks,” were treated with water based sprays of the test compounds. Sprays were delivered by CO2-charged sprayer to deliver the equivalent of 2 gallons of spray per 1000 sq. ft of plot area. Plots were 15 sq. ft. each, and treatments were mixed to apply material to 75 sq. ft (5 replicates), although only 4 replicates were treated. The quaternary salts of triterpenes were applied at 17.8 g/1000 sq. ft. for 14 days. Daconil Ultrex® was applied at 3.2 oz./1000 sq. ft. for 14 days. The experiment used a randomized complete block design, with 4 replicates per treatment. Disease pressure was high. Pennlinks […] is moderately to highly susceptible to both dollar spot and brown patch. For brown patch, caused by Rhozoctonia sofani. a visual estimate of the percent of the plot area affected was recorded. Turf quality was estimated on a 1 to 9 scale, with 1 being worst and 9 being perfect. A rating of 6 is considered acceptable.

Test [2] can be described thus: Antifungal treatment on turf grass plots (Example 84), turf quality. The conditions noted are these: 1 to 9 scale, 9 perfect, 17.8 g/1000 sq. ft. (Daconil Ultrex 3.2 oz./1000 sq. ft.). It is filed as in vivo, creeping bentgrass, cv. Pennlinks. As for the experimental part:
as §1

Test [3] concerns dollar spot. Briefly: Antifungal treatment on turf grass plots (Example 84), dollar spot count. Type of test: in vivo. The conditions noted are these: 17.8 g/1000 sq. ft. (Daconil Ultrex 3.2 oz./1000 sq. ft.). On the procedure:
as §1

Test [4] is described as follows: Turf plot trial at Clemson University (Example 85), turf quality. Particulars: 1 to 9 scale, 50 grams active ingredient per 1000 square feet. It is filed as in vivo, creeping bentgrass, cv. Pennlinks. On the procedure:
(§2) Plots of creeping bentgrass, cv. “Pennlinks,” were treated with water based sprays of the test compounds. Sprays were delivered by CO2-charged sprayer to deliver the equivalent of 2 gallons of spray per 1000 sq. ft of plot area. Plots were 15 sq. ft. each, and treatments were mixed to apply material to 75 sq. ft (5 replicates), although only 4 replicates were treated. […] Daconil Ultrex® was applied at 3.2 oz./1000 sq. ft. for 14 days. The experiment used a randomized complete block design, with 4 replicates per treatment. Disease pressure was high. Pennlinks […] is moderately to highly susceptible to both dollar spot and brown patch. For brown patch, caused by Rhozoctonia sofani. a visual estimate of the percent of the plot area affected was recorded. Turf quality was estimated on a 1 to 9 scale, with 1 being worst and 9 being perfect. A rating of 6 is considered acceptable.
(§3) Plots of creeping bentgrass, cv. Pennlinks, were treated with water-based sprays as in Example 84 at Clemson University. Treatment application dates were May 7. May 14, May 28, and June 11. Plots were rated visually, estimating the percent of the area affected by dollar spot fungus […]. Turf quality was rated on a 1 to 9 scale, with 9 being perfect turf, as in Example 84. Disease pressure was moderately high to high when the trial was initiated, with existing dollar spot present.

In test [5] the test system is dollar spot fungus (Agrostis stolonifera). Briefly: Turf plot trial at Clemson University (Example 85), area affected by dollar spot. It is filed as in vivo. The conditions noted are these: for % of area infected: 50 grams active ingredient per 1000 square feet. On the procedure:
as §2, §3

The mark [6] stands for this setting: Table 2 experiment, Jul. 2, 2001.
[7] abbreviates: Table 2 experiment, Jul. 9, 2001.
[8] abbreviates: Table 2 experiment, Jul. 16, 2001.
Where [9] appears, read: Table 2 experiment, Jun. 25, 2001.
The mark [10] stands for this setting: Table 3 experiment, Jul. 2, 2001.
Where [11] appears, read: Table 3 experiment, Jul. 9, 2001.
The mark [12] stands for this setting: Table 3 experiment, Jul. 16, 2001.
[13] abbreviates: Table 3 experiment, Jun. 25, 2001.

For `C=C(C)[C@@H]1CC[C@]2(COC(=O)C[n+]3ccccc3)CC[C@]3(C)C(CCC4[C@@]5(C)CC[C@H](OC(=O)C[n+]6ccccc6)C(C)(C)C5CC[C@]43C)C12.[Cl-].[Cl-]` (stereo partly drawn) [Compound 1, Lup-20(29)-ene3,28-bis-(N-pyridiniumacetate) dichloride], the “Brown Patch % of plot infected” value came out at 35.0% in test [1] (setting [6]); 13.8% in test [1] (setting [7]); 3.8% in test [1] (setting [8]); 18.8% in test [1] (setting [9]); 24.0% in test [1] (setting [10]); 20.5% in test [1] (setting [11]). The “Brown Patch % of plot infected” value is given as 8.6% in test [1] (setting [12]) and 15.8% in test [1] (setting [13]). The “Turf quality” value was determined as 4.50 in test [2] (setting [6]); 6.00 in test [2] (setting [7]); 5.57 in test [2] (setting [8]); 4.50 in test [2] (setting [9]); 4.50 in test [2] (setting [10]); 5.38 in test [2] (setting [11]). Further, the “Turf quality” value in test [2] (setting [13]) came out at 4.88. For the same molecule, the “Dollar Spot # of spots per plot” value is 22.3 spots per plot in test [3] (setting [6]); 2.8 spots per plot in test [3] (setting [8]); 21.0 spots per plot in test [3] (setting [9]); “suppressed dollar spot” in test [3] (setting [10]); 15.8 spots per plot in test [3] (Table 3 experiment, Jul. 2, 2001, listed as Comp. 1); 13.0 spots per plot in test [3] (setting [11]). For the same molecule, the “Dollar Spot # of spots per plot” value in test [3] (setting [12]) stood at 1.5 spots per plot; in test [3] (setting [13]), 11.5 spots per plot.

Take `C=C(C)[C@@H]1CC[C@]2(COC(=O)C[N+](C)(C)CCN(C)C)CC[C@]3(C)C(CCC4[C@@]5(C)CC[C@H](OC(=O)C[N+](C)(C)CCN(C)C)C(C)(C)C5CC[C@]43C)C12.[Cl-].[Cl-]` (stereo partly drawn) [Compound 7, Lup-20(29)-ene-3,28-bis[(tetramethylethylenediamine-N-yl)acetate] dichloride]: the “Brown Patch % of plot infected” value in test [1] (setting [6]) was 20.5%; in test [1] (setting [7]), 20.0%; in test [1] (setting [8]), 3.8%; in test [1] (setting [9]), 24.5%; in test [1] (setting [10]), 25.5%; in test [1] (setting [11]), “significantly suppress brown patch”. Further, the “Brown Patch % of plot infected” value in test [1] (Table 3 experiment, Jul. 9, 2001, listed as Comp. 7) is 10.8%; in test [1] (setting [12]), 8.8%; in test [1] (setting [13]), 17.5%. Further, the “Turf quality” value in test [2] (setting [6]) is listed as 4.25; in test [2] (setting [7]) it was 4.50; in test [2] (setting [8]), 5.60; in test [2] (setting [9]) it was 4.50; in test [2] (setting [10]) it was 4.50; in test [2] (setting [11]) it was 5.88. Besides, the “Turf quality” value in test [2] (setting [13]) stood at 4.36. Further, the “Dollar Spot # of spots per plot” value worked out at 22.3 spots per plot in test [3] (setting [6]); 2.3 spots per plot in test [3] (setting [8]); 18.3 spots per plot in test [3] (setting [9]); 21.5 spots per plot in test [3] (setting [10]); 14.5 spots per plot in test [3] (setting [11]); 2.0 spots per plot in test [3] (setting [12]). In addition, the “Dollar Spot # of spots per plot” value in test [3] (setting [13]) was 14.8 spots per plot.

As to `C=C(C)[C@@H]1CC[C@]2(COC(=O)CC[n+]3ccccc3)CC[C@]3(C)C(CCC4[C@@]5(C)CC[C@H](OC(=O)CC[n+]6ccccc6)C(C)(C)C5CC[C@]43C)C12.[Cl-].[Cl-]` (stereo partly drawn) [Compound 14, Lup-20 (29)-ene-3,28-bis (N-pyridinium-3-propionate) dichloride], the “Brown Patch % of plot infected” value in test [1] (setting [6]) is recorded as 36.8%; in test [1] (setting [7]), 25.0%; in test [1] (setting [8]), 5.0%; in test [1] (setting [9]), 25.8%; in test [1] (setting [10]), 31.3%; in test [1] (setting [11]), 16.5%. Also, the “Brown Patch % of plot infected” value was determined as 7.5% in test [1] (setting [12]) and 16.3% in test [1] (setting [13]). In addition, the “Turf quality” value turned out to be 4.25 in test [2] (setting [6]); 4.63 in test [2] (setting [7]); 5.60 in test [2] (setting [8]); 4.38 in test [2] (setting [9]); 4.75 in test [2] (setting [10]); 5.00 in test [2] (setting [11]). The “Turf quality” value in test [2] (setting [13]) turned out to be 4.88. For the same molecule, the “Dollar Spot # of spots per plot” value in test [3] (setting [6]) came to 21.8 spots per plot; in test [3] (setting [8]), 3.5 spots per plot; in test [3] (setting [9]), 22.3 spots per plot; in test [3] (setting [10]) it was 20.8 spots per plot; in test [3] (setting [11]), 14.5 spots per plot; in test [3] (setting [12]), 2.8 spots per plot. Moreover, the “Dollar Spot # of spots per plot” value in test [3] (setting [13]) was found to be 16.3 spots per plot.

In the case of `C=C(C)[C@@H]1CC[C@]2(CO)CC[C@]3(C)C(CCC4[C@@]5(C)CC[C@H](OC(=O)C[N+](C)(CCCCCCCCCC)CCCCCCCCCC)C(C)(C)C5CC[C@]43C)C12.[Cl-]` (stereo partly drawn) [Compound 67, Betulin-3-(didecylmethylammoniumacetoxy) chloride], the Turf quality in test [4] (Table 5, Jun. 3, 2002) was 6.00 a; in test [4] (Table 5, Jun. 17, 2002), 5.80 a; in test [4] (Table 5, May 27, 2002) it was 4.85 a; in test [4] (Table 6, May 8, 2002), 3.20 a; in test [4] (Table 6, May 13, 2002), 3.17 a; in test [4] (Table 6, May 20, 2002), 3.55 a. The “% of area infected” value in test [5] (Table 5 c2, Jun. 3, 2002) is 13.0 b %; in test [5] (Table 5 c4, Jun. 3, 2002), 9.0 b %; in test [5] (Table 6, May 8, 2002), 28.3 a %; in test [5] (Table 6, May 13, 2002), 26.0 a %; in test [5] (Table 6, May 20, 2002), 24.3 c %; in test [5] (Table 6, May 27, 2002), 21.0 d %. Besides, the “extent of dollar spot infection” value in test [5] (by the end of the treatment trial, compared to the no treatment control (text summary of Tables 5 and 6)) is recorded as “best results”.
